Drawing on US8283358B2, “N-sulfonamido polycyclic pyrazolyl compounds” (Elan Pharmaceuticals, Inc., priority 2008, dated 2012), this text covers IC50 for 55 compounds.

What is called IC50 is the point on the concentration scale where inhibition reaches its midpoint.

Bounds are passed on as bounds.

The target in one test is T1, gamma-secretase (partially purified extract of IMR-32 cell membranes; substrate MBP-C125 Swe fusion protein, cleavage at the Aβ40 site) (Homo sapiens, UniProt P49768).
T1 construct: a partially purified extract of IMR-32 cell membranes as the gamma-secretase enzyme preparation; endogenous in cells; host or cells: IMR-32 cell membranes, partially purified extract
The test can be described thus: Gamma-secretase APP enzyme assay (Example A). The test is classed as biochemical. As to conditions: class symbols; assay described in Example A; read-out: γAPP IC50. The text has this:
The gamma-secretase APP enzyme assay was designed to measure the specific proteolytic cleavage of an APP substrate (MBP-C125 Swe fusion protein) at the Aβ40 site. […] This assay involved two steps beginning with the enzymatic reaction generating a cleavage product that was captured with an immobilized antibody specific for the neo-epitope Aβ40 site. The captured cleavage product was then detected in a sandwich ELISA assay with a biotinylated reporter antibody that is specific to Aβ(17-28). Streptavidin-linked alkaline phosphatase was then added that would generate a fluorescent signal proportional to the amount of cleavage product.
This warmed solution of BigCHAPS (N,N-Bis(3-D-gluconamidopropyl)cholamide) detergent was used to dissolve Brain Extract Type-V (lipid containing a minimum of 40% phosphatidylethanolamine) from Sigma (St. Louis, Mo.) to a concentration of 8 mg/ml. This solution containing BigCHAPS and lipid at 8 mg/ml is then diluted to 0.53 mg/ml lipid with a pre-warmed solution of Hepes and sodium chloride.
Gamma-secretase was then added to a 96-well micro-titre plate and then incubated with various concentrations of inhibitor for 30 minutes at 37° C. MBPC125 substrate was then added to initiate the reaction that would run for two hours at 37° C. The reaction was quenched with the addition of SDS to a final concentration of 0.1% and then 100 μl of the reaction mixture was transferred to a capture ELISA plate and incubated overnight at 4° C. Detection of the cleavage product was performed using a standard sandwich ELISA assay and quantified using a six point standard curve.
`CC12C(=O)c3[nH]ncc3C(c3ccccc31)N2S(=O)(=O)c1ccc(C(F)(F)F)nc1` (stereo not shown) [compound 275]: the IC50 was under 100 nM. Still for that read-out and setting: to `O=S(=O)(c1ccc(C(F)(F)F)cc1)N1C2Cc3cccc(F)c3C1Cc1n[nH]cc12` (stereo not shown) [compound 190] belongs under 100 nM; to `O=S(=O)(c1ccc(C(F)(F)F)nc1)N1C2Cc3n[nH]cc3C1c1cc(F)c(F)cc12` (single isomer, unassigned) [compound 111], under 100 nM. Still for that read-out and setting: then `O=S(=O)(c1ccc(C(F)(F)F)nc1)N1C2c3cn[nH]c3C(F)(F)C1c1cccc(F)c12` (stereo not shown) [compound 166], with under 100 nM.

Turning to `COC(=O)c1cccc2c1C1Cc3[nH]ncc3C2N1S(=O)(=O)c1ccc(C(F)(F)F)nc1` (stereo not shown) [compound 226], the half-maximal inhibitory concentration (IC50) was under 100 nM. On the same count and under the same terms, to `O=S(=O)(c1ccc(C(F)(F)F)cc1)N1C2Cc3[nH]ncc3C1CC(c1nnn[nH]1)C2` (racemic) [compound 126] belongs over 1000 nM. Still for that read-out and setting: then `O=S(=O)(c1ccc(C(F)(F)F)cc1)N1C2Cc3[nH]ncc3C1c1ncccc12` (single isomer, unassigned) [compound 101], with under 100 nM; and `O=S(=O)(c1ccc(C(F)(F)F)nc1)N1C2Cc3[nH]ncc3C1c1cc(C3CC3)ccc12` (single isomer, unassigned) [compound 246], with over 1000 nM; and `O=S(=O)(c1ccc(C(F)(F)F)nc1)N1C2Cc3[nH]ncc3C1c1cc(Cl)ccc12` (stereo not shown) [compound 222], with under 100 nM. Still for that read-out and setting: then `O=S(=O)(c1ccc(C(F)(F)F)nc1)N1C2Cc3[nH]ncc3C1c1cc(F)ccc12` (single isomer, unassigned) [compound 179], with 500 to 999 nM; and `O=S(=O)(c1ccc(C(F)(F)F)cc1)N1C2Cc3[nH]ncc3C1c1cc3c(cc12)OCO3` (racemic) [compound 91], with under 100 nM. Take `O=S(=O)(c1ccc(C(F)(F)F)cc1)N1C2Cc3[nH]ncc3C1c1cccnc12` (single isomer, unassigned) [compound 99]: the IC50 was over 1000 nM. The same measure, in the same setting: then `O=S(=O)(c1ccc(C(F)(F)F)nc1)N1C2Cc3[nH]ncc3C1c1cc(F)ccc12` (single isomer, unassigned) [compound 180], with under 100 nM; and `O=S(=O)(c1ccc(C(F)(F)F)cc1)N1C2c3c[nH]nc3C(F)(F)C1c1cccc(F)c12` (stereo not shown) [compound 123], with under 100 nM.

As to `O=S(=O)(c1ccc(C(F)(F)F)nc1)N1C2Cc3ccccc3C1c1c[nH]nc1C2` (stereo not shown) [compound 88], the IC50 is under 100 nM. With `CC#Cc1ccc2c(c1)[C@@H]1c3cn[nH]c3C[C@@H]2N1S(=O)(=O)c1ccc(C(F)(F)F)nc1` [compound 261], the IC50 was 100 to 499 nM. The same measure, in the same setting: then `O=S(=O)(c1ccc(C(F)(F)F)cc1)N1C2Cc3[nH]ncc3C1c1cnccc12` (stereo not shown) [compound 120], with over 1000 nM; and `O=C1c2[nH]ncc2C2c3cccc(F)c3C1N2S(=O)(=O)c1ccc(C(F)(F)F)nc1` (single isomer, unassigned) [compound 193], with 500 to 999 nM. Still for that read-out and setting: then `O=S(=O)(c1ccc(C(F)(F)F)cc1)N1C2Cc3[nH]ncc3C1CC(c1cccc(-n3cccn3)c1)C2` (stereo not shown) [compound 133], with under 100 nM; and `O=S(=O)(c1ccc(C(F)(F)F)cc1)N1C2Cc3[nH]ncc3C1CC(c1ccc(-n3cccn3)cc1)C2` (stereo not shown) [compound 124], with under 100 nM. On the same count and under the same terms, to `O=S(=O)(c1ccc(C(F)(F)F)cc1)N1C2Cc3[nH]ncc3C1c1ccccc12` (racemic) [compound 73] belongs under 100 nM; to `O=S(=O)(c1ccc(C(F)(F)F)cc1)N1C2Cc3[nH]ncc3C1c1ccc3ccccc3c12` (stereo not shown) [compound 160], under 100 nM; to `O=S(=O)(c1ccc(C(F)(F)F)nc1)N1C2Cc3[nH]ncc3C1c1c(Cl)cccc12` (single isomer, unassigned) [compound 232], 500 to 999 nM. In the case of `O=S(=O)(c1ccc(C(F)(F)F)nc1)N1C2c3c[nH]nc3[C@H](O)C1c1c(F)cccc12` (stereo partly shown) [compound 239], the IC50 was over 1000 nM.

On to `O=C1CCN1c1ccc(C2CC3Cc4[nH]ncc4C(C2)N3S(=O)(=O)c2ccc(C(F)(F)F)cc2)cc1` (racemic) [compound 153], for which the IC50 was under 100 nM. In the case of `O=C1COCCN1c1ccc(C2CC3Cc4[nH]ncc4C(C2)N3S(=O)(=O)c2ccc(C(F)(F)F)cc2)cc1` (racemic) [compound 143], the IC50 lay within 500 to 999 nM. On the same count and under the same terms, to `O=S(=O)(c1ccc(C(F)(F)F)nc1)N1C2Cc3n[nH]cc3C1c1cccc(C3CC3)c1C2` (stereo not shown) [compound 134] belongs under 100 nM.

For the compound `O=S(=O)(c1ccc(C(F)(F)F)nc1)N1C2Cc3[nH]ncc3C1c1cc(-c3ccc(F)cc3)ccc12` (stereo not shown) [compound 241], the IC50 is under 100 nM. On the same count and under the same terms, to `O=S(=O)(c1ccc(C(F)(F)F)nc1)N1C2c3ccccc3C1[C@@H](F)c1n[nH]cc12` (stereo partly shown) [compound 206] belongs under 100 nM; to `O=S(=O)(c1ccc(C(F)(F)F)cc1)N1C2Cc3[nH]ncc3C1CC(c1ccc(-n3cncn3)cc1)C2` (racemic) [compound 147], 100 to 499 nM. Still for that read-out and setting: then `O=S(=O)(c1ccc(C(F)(F)F)cc1)N1C2Cc3[nH]ncc3C1c1ccccc12` (racemic) [compound 52], with under 100 nM; and `O=S(=O)(c1ccc(C(F)(F)F)cc1)N1C2Cc3c(-c4ccc(F)cc4)cccc3C1Cc1[nH]ncc12` (racemic) [compound 165], with under 100 nM; and `O=S(=O)(c1ccc(C(F)(F)F)cc1)N1C2Cc3[nH]ncc3C1c1ccc3ccccc3c12` (stereo not shown) [compound 168], with under 100 nM.

For the compound `O=S(=O)(c1ccc(Cl)cc1)N1C2Cc3[nH]ncc3C1CC(c1ccncn1)C2` (stereo not shown) [compound 107], the IC50 was under 100 nM. On the same count and under the same terms, to `O=S(=O)(c1ccc(Cl)cc1)N1C2Cc3[nH]ncc3C1c1c(F)cccc12` (single isomer, unassigned) [compound 231] belongs under 100 nM; to `O=S(=O)(c1ccc(C(F)(F)F)cc1)N1C2Cc3[nH]ncc3C1c1cccc(F)c12` (racemic) [compound 97], under 100 nM. On the same count and under the same terms, to `O=C1c2n[nH]cc2C2c3c(F)cccc3C1N2S(=O)(=O)c1ccc(C(F)(F)F)cc1` (stereo not shown) [compound 103] belongs under 100 nM; to `COC(=O)c1cccc2c1C1Cc3[nH]ncc3C2N1S(=O)(=O)c1ccc(C(F)(F)F)nc1` (stereo not shown) [compound 227], 100 to 499 nM. Take `O=S(=O)(c1ccc(C(F)(F)F)nc1)N1C2Cc3n[nH]cc3C1c1cccc(CO)c12` (stereo not shown) [compound 252]: the IC50 is under 100 nM. On to `O=S(=O)(c1ccc(C(F)(F)F)cc1)N1C2Cc3[nH]ncc3C1c1c2ccc2ccccc12` (stereo not shown) [compound 171], for which the IC50 fell in the range of 100 to 499 nM. For the compound `Cc1noc(-c2cccc3c2C2Cc4[nH]ncc4C3N2S(=O)(=O)c2ccc(C(F)(F)F)nc2)n1` (stereo not shown) [compound 235], the IC50 lay within 100 to 499 nM.

Regarding `O=S(=O)(c1ccc(F)cc1)N1C2Cc3[nH]ncc3C1c1c(F)cccc12` (racemic) [compound 210], the IC50 was under 100 nM. On the same count and under the same terms, to `O=S(=O)(c1ccc(C(F)(F)F)cc1)N1C2c3cc(F)c(F)cc3C1C(F)(F)c1n[nH]cc12` (stereo not shown) [compound 77] belongs under 100 nM; to `O=S(=O)(c1ccc(Cl)cc1)N1C2Cc3[nH]ncc3C1c1c(F)cccc12` (single isomer, unassigned) [compound 230], over 1000 nM. On the same count and under the same terms, then `O=S(=O)(c1ccc(C(F)(F)F)nc1)N1[C@H]2c3cn[nH]c3[C@H](F)[C@@H]1c1cccc(F)c12` [compound 267], with under 100 nM; and `O=S(=O)(c1ccc(C(F)(F)F)cc1)N1C2Cc3[nH]ncc3C1CC(c1ccc(-c3cscn3)cc1)C2` (stereo not shown) [compound 116], with under 100 nM; and `O=S(=O)(c1ccc(C(F)(F)F)nc1)N1C2c3c[nH]nc3[C@H](F)C1c1cccc(F)c12` (stereo partly shown) [compound 207], with under 100 nM. Still for that read-out and setting: to `CC(=O)c1ccc(C2CC3Cc4[nH]ncc4C(C2)N3S(=O)(=O)c2ccc(C(F)(F)F)cc2)cc1` (racemic) [compound 154] belongs 100 to 499 nM.

Turning to `O=S(=O)(c1ccc(C(F)(F)F)nc1)N1C2Cc3[nH]ncc3C1c1cc(Br)ccc12` (stereo not shown) [compound 250], the IC50 was under 100 nM.

`O=S(=O)(c1ccc(C(F)(F)F)cc1)N1C2C=C(c3ccc(F)cc3)C1c1cn[nH]c1C2` (racemic) [compound 59]: the IC50 was 100 to 499 nM. The same measure, in the same setting: then `O=S(=O)(c1ccc(C(F)(F)F)nc1)N1C2Cc3[nH]ncc3C1CC(c1ccc3c(c1)OCO3)C2` (stereo not shown) [compound 108], with under 100 nM; and `O=S(=O)(c1ccc(C(F)(F)F)cc1)N1C2Cc3cccc(F)c3C1Cc1n[nH]cc12` (stereo not shown) [compound 191], with under 100 nM.

The same test, now with this note: numeric bounds given instead of class symbols; assay described in Example A; read-out: γAPP IC50.
`CC12C(=O)c3[nH]ncc3C(c3ccccc31)N2S(=O)(=O)c1ccc(C(F)(F)F)nc1` (stereo not shown) [compound 276]: the IC50 is over 30 nM.

The same test, now with this note: γAPP IC50 (nM), class symbols; assay described in Example A.
Regarding `O=S(=O)(c1ccc(C(F)(F)F)nc1)N1C2Cc3n[nH]cc3C1c1ncsc12` (stereo not shown) [compound 188], the IC50 is over 1000 nM. In turn, `O=S(=O)(c1ccc(C(F)(F)F)cc1)N1C2Cc3n[nH]cc3C1c1c(F)cccc12` (stereo not shown) [compound 96] returned an IC50 of under 100 nM.
